In patent US4282243A, “Optical isomers of 4-amino-N-(1-cyclohexyl-3-pyrrolidinyl)-N-methylbenzamide” (A. H. Robins Company, Inc., priority 1980, dated 1981):

Columns and labels:
Format in all cases: in vivo
rat = test: Cataleptic effects in rat, procedure based on Tedeschi et al.; conditions: for cataleptic effect (NSE = no significant cataleptic effect in doses up to indicated amount): rat, fumarate salts, expressed as free base
Source text: (§1) The procedure used for determining cataleptic effects of the fumarate salts was based on that of Tedeschi et al., Arch. Int. Pharmacodyn.

dog = test: Anti-emetic activity in dogs, modified anti-apomorphine method; conditions: fumarate salts; for ED50: Canis lupus familiaris, sc, expressed as free base, read-out: ED50 (95% Confidence Limits), anti-apomorphine
Experimental: The anti-emetic properties of the fumarate salts were established in dogs using a modification of the anti-apomorphine methods of Chen and Ensor, J. Pharmac. Exp. Ther. 98, 245-250 (1950) and of Leonard et al., J. Pharmac. Exp. Ther. 154, 339-345 (1966) and the ED50 was calculated by the method of Goldstein (Biostatistics, An Introductory Text, pg. 156-161, The MacMillan Co., N. Y., 1964).

[1] = Cataleptic effects in rat, procedure based on Tedeschi et al.; conditions: in vivo; rat, IP; fumarate salts, expressed as free base; read-out: ED50, cataleptic effect
Source text: as §1

## CN(C(=O)c1ccc(N)cc1)C1CCN(C2CCCCC2)C1 (single isomer, unassigned; (+)) [(+)-isomer, (+)-4-amino-N-(1-cyclohexyl-3-pyrrolidinyl)-N-methylbenzamide]
rat; IP
  cataleptic effect (NSE = no significant cataleptic effect in doses up to indicated amount): NSE to 100
rat; PO
  cataleptic effect (NSE = no significant cataleptic effect in doses up to indicated amount): NSE to 200
dog; s.c.
  anti-apomorphine activity (words in the ED50 column): no significant

## CN(C(=O)c1ccc(N)cc1)C1CCN(C2CCCCC2)C1 (racemic) [± racemate, 4-amino-N-(1-cyclohexyl-3-pyrrolidinyl)-N-methylbenzamide]
rat; general statement
  cataleptic properties: notable absence of cataleptic properties
rat; IP
  cataleptic effect (NSE = no significant cataleptic effect in doses up to indicated amount): NSE to 100
rat; PO
  cataleptic effect (NSE = no significant cataleptic effect in doses up to indicated amount): NSE to 200
dog
  ED50: 0.25 mg/kg

## CN(C(=O)c1ccc(N)cc1)C1CCN(C2CCCCC2)C1 (single isomer, unassigned; (-)) [(-)-isomer, (-)-4-amino-N-(1-cyclohexyl-3-pyrrolidinyl)-N-methylbenzamide]
[1]
  ED50: > 100 mg/kg
dog
  ED50: 0.09 mg/kg
